How the values were obtained:
[1] = molecular target: AChE (Electrophorus electricus, UniProt O42275); assay: Enzyme kinetics of AChE inhibition; assay type: biochemical; details: for Vmax (μmol/min)^−^1: Vmax of AChE, not apparent
[2] = molecular target: AChE EC 3.1.1.7 (Electrophorus electricus, UniProt O42275); assay: biochemical
[3] = Cytotoxicity: human neutrophil viability assay; assay type: cell-based; details: human
[4] = tested on: rabbit jejunum; assay: Spasmolytic activity on spontaneous contraction of isolated rabbit jejunum; details: spontaneously contracting isolated rabbit jejunum; Mean ± SEM, n = 3
[5] = tested on: rabbit jejunum; details: high K+ (80 mM)-contracted isolated rabbit jejunum; Mean ± SEM, n = 3
[6] = tested on: human neutrophils; assay: Cytotoxicity: human neutrophil viability assay; assay type: cell-based; details: 200 μg/mL

Sequence of AChE EC 3.1.1.7 (O42275 24-633): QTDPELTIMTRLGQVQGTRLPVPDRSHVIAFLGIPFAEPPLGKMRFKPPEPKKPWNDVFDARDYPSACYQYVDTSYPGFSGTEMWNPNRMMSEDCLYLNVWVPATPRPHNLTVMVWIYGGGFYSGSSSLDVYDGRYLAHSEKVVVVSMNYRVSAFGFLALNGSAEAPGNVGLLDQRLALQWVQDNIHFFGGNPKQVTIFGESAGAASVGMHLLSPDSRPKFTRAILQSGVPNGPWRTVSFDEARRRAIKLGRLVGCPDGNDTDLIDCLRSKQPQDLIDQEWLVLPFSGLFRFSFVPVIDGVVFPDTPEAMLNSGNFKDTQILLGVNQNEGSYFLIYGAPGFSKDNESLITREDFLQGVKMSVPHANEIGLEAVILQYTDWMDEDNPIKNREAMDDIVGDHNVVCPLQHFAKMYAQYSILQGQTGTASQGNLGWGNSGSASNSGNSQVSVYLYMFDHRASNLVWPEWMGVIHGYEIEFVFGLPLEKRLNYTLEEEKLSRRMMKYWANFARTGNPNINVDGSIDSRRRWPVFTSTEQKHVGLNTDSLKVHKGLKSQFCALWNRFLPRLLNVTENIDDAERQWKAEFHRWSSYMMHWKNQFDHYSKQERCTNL
Sequence of AChE (O42275 24-633): as above

| Structure (SMILES) | Ki [1] [µM] | type of inhibition [1] | Vmax (μmol/min)^−^1 [1] | IC50 [2] [µM] | viability at 30 min, 200 µg/ml [3] [%] | Effective dose (ED50), Spontaneous [4] [µg/mL] | Effective dose (ED50), High K+ [5] [µg/mL] | toxicity in the neutrophil viability assay (in words) [6] |
| --- | --- | --- | --- | --- | --- | --- | --- | --- |
| CCSc1nc2ccccc2n1Cc1nnc(-c2ccc([N+](=O)[O-])cc2)o1 [Compound 28, 2-((2-(Ethylthio)-1H-benzo[d]imidazole-1-yl)methyl)-5-(4-nitrophenyl)-1,3,4-oxadiazole] | 289.2 ± 0.8 | noncompetitive | 5.0 (μmol/min)^−^1 | 750.9 ± 1.19 | – | – | – | – |
| CCSc1nc2ccccc2n1Cc1nnc(-c2cc(OC)c(OC)c(OC)c2)o1 [Compound 27, 2-((2-(Ethylthio)-1H-benzo[d]imidazole-1-yl)methyl)-5-(3,4,5-trimethoxyphenyl)-1,3,4-oxadiazole] | 775.02 ± 0.5 | noncompetitive | 5.0 (μmol/min)^−^1 | 1580.2 ± 0.76 | – | – | – | – |
| CCSc1nc2ccccc2n1Cc1nnc(-c2ccc(N(CC)CC)cc2)o1 [Compound 35, N,N-Diethyl-4-(5-((2-(ethylthio)-1H-benzo[d]imidazole-1-yl)methyl)-1,3,4-oxadiazol-2-yl)aniline] | 101.3 ± 0.3 | noncompetitive | 5.0 (μmol/min)^−^1 | 258.1 ± 1.02 | – | – | – | – |
| CCSc1nc2ccccc2n1Cc1nnc(-c2ccc(C)o2)o1 [Compound 22, 2-((2-(Ethylthio)-1H-benzo[d]imidazole-1-yl)methyl)-5-(5-methylfuran-2-yl)-1,3,4-oxadiazole] | 32.1 ± 1.4 | noncompetitive | 5.0 (μmol/min)^−^1 | 97.94 ± 0.79 | – | – | – | – |
| COc1ccc2c3c1O[C@H]1C[C@@H](O)C=C[C@@]31CCN(C)C2 [Galanthamine, reference compound] | – | – | – | – | 96 ± 3.1 | – | – | – |
| CCSc1nc2ccccc2n1Cc1nnc(-c2ccc(F)c(OC)c2)o1 [Compound 29, 2-((2-(Ethylthio)-1H-benzo[d]imidazole-1-yl)methyl)-5-(4-fluoro-3-methoxyphenyl)-1,3,4-oxadiazole] | 34.2 ± 0.9 | noncompetitive | 5.0 (μmol/min)^−^1 | 84.2 ± 1.99 | – | – | – | – |
| CCSc1nc2ccccc2n1Cc1nnc(-c2ccc(O)cc2)o1 [Compound 26, 4-(5-((2-(Ethylthio)-1H-benzo[d]imidazole-1-yl)methyl)-1,3,4-oxadiazol-2-yl)phenol] | 30.5 ± 1.9 | noncompetitive | 5.0 (μmol/min)^−^1 | 93.2 ± 0.96 | – | – | – | – |
| CCSc1nc2ccccc2n1Cc1nnc(-c2ccc(F)cc2)o1 [Compound 15, 2-((2-(Ethylthio)-1H-benzo[d]imidazole-1-yl)methyl)-5-(4-fluorophenyl)-1,3,4-oxadiazole] | 53.3 ± 1.4 | noncompetitive | 5.0 (μmol/min)^−^1 | 130.5 ± 1.03 | – | – | – | – |
| CCSc1nc2ccccc2n1Cc1nnc(-c2ccccc2O)o1 [Compound 31, 2-(5-((2-(Ethylthio)-1H-benzo[d]imidazole-1-yl)methyl)-1,3,4-oxadiazol-2-yl)phenol] | 89.5 ± 1.5 | noncompetitive | 5.0 (μmol/min)^−^1 | 248.5 ± 1.81 | – | – | – | – |
| CCSc1nc2ccccc2n1Cc1nnc(-c2ccccc2OC)o1 [Compound 21, 2-((2-(Ethylthio)-1H-benzo[d]imidazole-1-yl)methyl)-5-(2-methoxyphenyl)-1,3,4-oxadiazole] | 112 ± 1.3 | noncompetitive | 5.0 (μmol/min)^−^1 | 291.9 ± 1.52 | – | – | – | – |
| CCSc1nc2ccccc2n1Cc1nnc(-c2cccc(O)c2O)o1 [Compound 33, 3-(5-((2-(Ethylthio)-1H-benzo[d]imidazole-1-yl)methyl)-1,3,4-oxadiazol-2-yl)benzene-1,2-diol] | 121 ± 0.5 | noncompetitive | 5.0 (μmol/min)^−^1 | 320.6 ± 1.12 | – | – | – | – |
| CCSc1nc2ccccc2n1Cc1nnc(-c2ccccc2Cl)o1 [Compound 23, 2-(2-Chlorophenyl)-5-((2-(ethylthio)-1H-benzo[d]imidazole-1-yl)methyl)-1,3,4-oxadiazole] | 45.1 ± 0.9 | noncompetitive | 5.0 (μmol/min)^−^1 | 118 ± 1.41 | – | – | – | – |
| CCSc1nc2ccccc2n1Cc1nnc(-c2ccc(OC)c(OC)c2)o1 [Compound 24, 2-(3,4-Dimethoxyphenyl)-5-((2-(ethylthio)-1H-benzo[d]imidazole-1-yl)methyl)-1,3,4-oxadiazole] | 284.2 ± 1.2 | noncompetitive | 5.0 (μmol/min)^−^1 | 692 ± 0.99 | – | – | – | – |
| CCSc1nc2ccccc2n1Cc1nnc(-c2ccc(C)cc2)o1 [Compound 34, 2-((2-(Ethylthio)-1H-benzo[d]imidazole-1-yl)methyl)-5-(p-tolyl)-1,3,4-oxadiazole] | 135.2 ± 0.5 | noncompetitive | 5.0 (μmol/min)^−^1 | 377.4 ± 1.57 | – | – | – | – |
| CCSc1nc2ccccc2n1Cc1nnc(-c2cccc(OC)c2O)o1 [Compound 18, 2-(5-((2-(Ethylthio)-1H-benzo[d]imidazole-1-yl)methyl)-1,3,4-oxadiazol-2-yl)-6-methoxyphenol] | 98.77 ± 0.7 | noncompetitive | 5.0 (μmol/min)^−^1 | 248.8 ± 1.02 | – | – | – | – |
| CCCCCCCc1nnc(Cn2c(SCC)nc3ccccc32)o1 [Compound 16, 2-((2-(Ethylthio)-1H-benzo[d]imidazole-1-yl)methyl)-5-heptyl-1,3,4-oxadiazole] | 18.3 ± 1.7 | noncompetitive | 5.0 (μmol/min)^−^1 | 41.9 ± 0.67 | 96.1 ± 2.5 | 0.12 ± 0.00 | 0.22 ± 0.01 | nontoxic |
| CCSc1nc2ccccc2n1Cc1nnc(-c2ccc(OC)cc2)o1 [Compound 20, 2-((2-(Ethylthio)-1H-benzo[d]imidazole-1-yl)methyl)-5-(4-methoxyphenyl)-1,3,4-oxadiazole] | 147 ± 1.9 | noncompetitive | 5.0 (μmol/min)^−^1 | 380.1 ± 0.87 | – | – | – | – |
| CCSc1nc2ccccc2n1Cc1nnc(-c2ccc(O)cc2O)o1 [Compound 30, 4-(5-((2-(Ethylthio)-1H-benzo[d]imidazole-1-yl)methyl)-1,3,4-oxadiazol-2-yl)benzene-1,3-diol] | 456.71 ± 0.2 | noncompetitive | 5.0 (μmol/min)^−^1 | 1190 ± 0.65 | – | – | – | – |
| CCSc1nc2ccccc2n1Cc1nnc(-c2ccc(Cl)cc2)o1 [Compound 25, 2-(4-Chlorophenyl)-5-((2-(ethylthio)-1H-benzo[d]imidazole-1-yl)methyl)-1,3,4-oxadiazole] | 83.21 ± 0.6 | noncompetitive | 5.0 (μmol/min)^−^1 | 208.3 ± 1.39 | – | – | – | – |
| CCOc1cccc(-c2nnc(Cn3c(SCC)nc4ccccc43)o2)c1O [Compound 19, 2-Ethoxy-6-(5-((2-(ethylthio)-1H-benzo[d]imidazole-1-yl)methyl)-1,3,4-oxadiazol-2-yl)phenol] | 93.3 ± 1.5 | noncompetitive | 5.0 (μmol/min)^−^1 | 223.5 ± 0.96 | – | – | – | – |
| CCSc1nc2ccccc2n1Cc1nnc(-c2cccc(O)c2)o1 [Compound 32, 3-(5-((2-(Ethylthio)-1H-benzo[d]imidazole-1-yl)methyl)-1,3,4-oxadiazol-2-yl)phenol] | 148.8 ± 0.2 | noncompetitive | 5.0 (μmol/min)^−^1 | 400.7 ± 0.95 | – | – | – | – |
| CCSc1nc2ccccc2n1Cc1nnc(-c2ccco2)o1 [Compound 17, 2-((2-(Ethylthio)-1H-benzo[d]imidazole-1-yl)methyl)-5-(furan-2-yl)-1,3,4-oxadiazole] | 24.3 ± 1.3 | noncompetitive | 5.0 (μmol/min)^−^1 | 69.7 ± 0.95 | 100 ± 1 | 0.13 ± 0.07 | 0.26 ± 0.05 | nontoxic |
